{
  "source": "patent US20070060501A1",
  "about": "(priority 2005, published 2007)",
  "key": {"[1]": {"test_system": "mice", "conditions": "cited from earlier work"}, "[2]": {"test_system": "mouse", "conditions": "in vivo; cited from earlier work"}, "[3]": {"test_system": "spinal alpha-2 receptors", "assay_type": "in vivo, rat"}, "[4]": {"test_system": "Sprague-Dawley rats", "test": "Effect on analgesia produced by a single spinal dose of morphine (tail flick and paw pressure tests)", "assay_type": "in vivo, rat"}, "[5]": {"test_system": "Sprague-Dawley rats", "test": "Acute tolerance to spinal morphine: three successive intrathecal injections at 90 minute intervals, cumulative morphine dose-response curves 24 hours later (tail flick and paw pressure tests)", "assay_type": "in vivo, rat", "conditions": "for development of acute tolerance to morphine: ultra-low dose administration, intrathecal"}, "[6]": {"test_system": "Sprague-Dawley rats", "test": "Chronic tolerance to spinal morphine: daily intrathecal injection for 5 days, cumulative dose-response curves on day 6 (tail flick and paw pressure tests)", "assay_type": "in vivo, rat"}, "[7]": {"test_system": "Sprague-Dawley rats", "test": "Reversal of pre-existing morphine analgesic tolerance by ultra-low dose atipemazole (tail flick and paw pressure tests)"}, "[8]": {"conditions": "idazoxan 0.08 ng with morphine 15 μg intrathecal"}, "[9]": {"conditions": "idazoxan ultra-low doses (0.008, 0.016, 0.08 ng) with morphine 15 μg x 3"}, "[10]": {"conditions": "mirtazapine 2 μg with clonidine 13.3 μg intrathecal"}, "[11]": {"conditions": "mirtazapine 0.02 ng co-injection with morphine 15 μg x 3"}, "[12]": {"conditions": "mirtazapine 0.02 ng with morphine 15 μg x 3"}, "[13]": {"conditions": "single mirtazapine exposure 0.02 ng 30 minutes prior to repeated morphine"}, "[14]": {"conditions": "group receiving repeated morphine injections (15 μg x 3) vs saline-treated control"}, "[15]": {"conditions": "saline-treated control group, cumulative intrathecal dose-response curve 24 hours after treatment"}, "[16]": {"conditions": "group receiving chronic morphine alone (15 μg for 10 days)"}, "[17]": {"conditions": "group receiving morphine (15 μg for 10 days) with atipemazole 0.8 ng from day 6 for 5 days"}},
  "note": "Several values for one entry are separate records, joined by “and”; a condition that tells them apart may be missing. Equal values may be shown once. Entries after “also recorded” stand apart in the source; their conditions may differ. Read-outs that look alike come from different tables or passages of the source.",
  "data": [
    {"compound": "CC(C)NCC(O)COc1cccc2ccccc12", "note": "(centres unmarked) [propranolol]", "values": [
      {"measurement": "development of tolerance to morphine analgesia", "setting": "[1]", "value": "suppress the development of tolerance"}
    ]},
    {"compound": "COCCc1ccc(OCC(O)CNC(C)C)cc1", "note": "(centres unmarked) [metoprolol]", "values": [
      {"measurement": "development of tolerance to morphine analgesia", "setting": "[1]", "value": "suppress the development of tolerance"}
    ]},
    {"compound": "C=CCN1CC[C@]23c4c5ccc(O)c4O[C@H]2C(=O)CC[C@@]3(O)[C@H]1C5", "note": "[naloxone]", "values": [
      {"measurement": "effect on alpha-2 receptor agonist analgesia", "setting": "[2]", "value": "does not affect"}
    ]},
    {"compound": "Cc1ccc(N(CC2=NCCN2)c2cccc(O)c2)cc1", "note": "[phentolamine]", "values": [
      {"measurement": "development of tolerance to morphine analgesia", "setting": "[1]", "value": "suppress the development of tolerance"}
    ]},
    {"compound": "Clc1cccc(Cl)c1N=C1NCCN1", "note": "[clonidine]", "values": [
      {"measurement": "analgesic response to clonidine, paw pressure test", "setting": "[3]; rat, in vivo", "value": "lesser effect"},
      {"measurement": "analgesic response to clonidine, tail flick test", "setting": "[3]; rat, in vivo", "value": "maximal analgesic response"}
    ]},
    {"compound": "c1ccc2c(c1)OCC(C1=NCCN1)O2", "note": "(centres unmarked) [idazoxan]", "values": [
      {"measurement": "effect on peak clonidine analgesia, tail flick test", "setting": "[3]; idazoxan 10 μg with clonidine 13.3 μg intrathecal", "value": "decreased significantly"},
      {"measurement": "effect on morphine analgesia, both tail flick and paw pressure tests", "setting": "[4]; [8]", "value": "significantly extended morphine analgesia"},
      {"measurement": "effect on peak morphine analgesia, paw pressure test", "setting": "[4]; [8]", "value": "augmented peak morphine analgesia"},
      {"measurement": "effect on the shift of the morphine dose-response curve, both tail flick and paw pressure tests", "setting": "[5]; idazoxan 0.008 ng, 0.016 ng with morphine 15 μg x 3", "value": "prevented the rightward shift"},
      {"measurement": "effect on the increase in morphine ED50, both tail flick and paw pressure tests", "setting": "[5]; idazoxan 0.008, 0.016 and 0.08 ng co-injection with morphine 15 μg x 3", "value": "prevented the increase in ED50"},
      {"measurement": "analgesic response to repeated administration alone", "setting": "[5]; idazoxan alone at 0.008 and 0.016 ng, injected at 90 minute intervals", "value": "no significant analgesic response"},
      {"measurement": "effect on peak morphine analgesia, tail flick test", "setting": "[5]; idazoxan lowest dose 0.008 ng with morphine 15 μg x 3", "value": "reduced the peak morphine analgesia"},
      {"measurement": "effect on the decline of morphine analgesia, paw pressure test", "setting": "[5]; [9]", "value": "arrested the decline of the analgesic effect"},
      {"measurement": "effect on the decline of morphine analgesia, tail flick test", "setting": "[5]; [9]", "value": "less effective at arresting the decline"},
      {"measurement": "development of acute tolerance to morphine", "setting": "[5]", "value": "very effectively inhibit"}
    ]},
    {"compound": "CN1CCN2c3ncccc3Cc3ccccc3C2C1", "note": "(centres unmarked) [mirtazapine]", "values": [
      {"measurement": "effect on clonidine analgesia, paw pressure test", "setting": "[3]; 10 μg with clonidine 13.3 μg intrathecal (FIG. 28B)", "value": "almost abolished"},
      {"measurement": "effect on clonidine analgesia, paw pressure test", "setting": "[3]; [10]", "value": "almost abolished"},
      {"measurement": "effect on peak clonidine analgesia, tail flick test", "setting": "[3]; [10]", "value": "decreased significantly"},
      {"measurement": "effect on peak morphine analgesia, tail flick test", "setting": "[4]; mirtazapine 0.2 ng with morphine 15 μg intrathecal", "value": "reduced the peak morphine analgesia"},
      {"measurement": "effect on morphine analgesia, paw pressure test", "setting": "[4]; mirtazapine 0.02 and 0.2 ng with morphine 15 μg intrathecal", "value": "significantly extended morphine analgesia"},
      {"measurement": "effect on duration of morphine analgesia, tail flick test", "setting": "[4]; mirtazapine 0.02 and 0.2 ng with morphine 15 μg intrathecal, particularly at 0.02 ng", "value": "extended morphine analgesia"},
      {"measurement": "effect on the increase in morphine ED50, paw pressure test", "setting": "[5]; [11]", "value": "completely prevented the increase in ED50"},
      {"measurement": "effect on the increase in morphine ED50, tail flick test", "setting": "[5]; [11]", "value": "partially prevented the increase in ED50"},
      {"measurement": "effect on peak morphine analgesia, tail flick test", "setting": "[5]; [12]", "value": "reduced the peak morphine analgesia"},
      {"measurement": "effect on the decline of morphine analgesia, paw pressure test", "setting": "[5]; [12]", "value": "arrested the decline of the analgesic effect"},
      {"measurement": "effect on the decline of morphine analgesia, tail flick test", "setting": "[5]; [12]", "value": "less effective at arresting the decline"},
      {"measurement": "effect on the shift of the morphine dose-response curve, paw pressure test", "setting": "[5]; [12]", "value": "prevented the rightward shift"},
      {"measurement": "morphine dose-response curves of morphine and morphine-mirtazapine groups, tail flick test", "setting": "[5]; [12]", "value": "showed an overlap at upper dose range of the opioid agonist"},
      {"measurement": "prevention of the right shift of the morphine dose response curve, paw pressure vs tail flick test", "setting": "[5]; single mirtazapine dose 0.02 ng 30 minutes prior to morphine 15 μg x 3", "value": "more effective in the paw pressure test at preventing the right shift"},
      {"measurement": "effect on the increase in morphine ED50, paw pressure test", "setting": "[5]; [13]", "value": "completely prevented the increase in ED50"},
      {"measurement": "effect on the increase in morphine ED50, tail flick test", "setting": "[5]; [13]", "value": "partially prevented the increase in ED50"},
      {"measurement": "development of acute tolerance to morphine", "setting": "[5]", "value": "very effectively inhibit"}
    ]},
    {"compound": "COc1cc2nc(N3CCN(C(=O)c4ccco4)CC3)nc(N)c2cc1OC", "note": "[prazoin]", "values": [
      {"measurement": "development of tolerance to morphine analgesia", "setting": "[1]", "value": "suppress the development of tolerance"}
    ]},
    {"compound": "CN1CC[C@]23c4c5ccc(O)c4O[C@H]2[C@@H](O)C=C[C@H]3[C@H]1C5", "note": "[morphine]", "values": [
      {"measurement": "time of peak analgesia after a single dose of morphine", "setting": "[4]; morphine 15 μg intrathecal, tail flick and paw pressure tests", "value": 30, "unit": "min"},
      {"measurement": "decline of the analgesic effect of morphine observed after the first injection, at the end of the 240 minute test period", "setting": "[5]; 3 successive doses of morphine 15 μg intrathecal at 90 minute intervals", "value": "~80", "unit": "%"},
      {"measurement": "increase in morphine ED50, paw pressure test", "setting": "[5]; [14]", "value": 4, "unit": "fold"},
      {"measurement": "increase in morphine ED50, tail flick test", "setting": "[5]; [14]", "value": "~5", "unit": "fold"},
      {"measurement": "cumulative morphine dose-response curve 24 hours after repeated morphine injections", "setting": "[5]; morphine 15 μg x 3 at 90 minute intervals, relative to saline treatment", "value": "shifted to the right; also recorded: parallel right shift"},
      {"measurement": "ED50 value of morphine, paw pressure test", "setting": "[5]; [15]", "value": "~7 µg and ~8 µg"},
      {"measurement": "ED50 value of morphine, tail flick test", "setting": "[5]; [15]", "value": "~5", "unit": "µg"},
      {"measurement": "increase in morphine ED50 values, both tests", "setting": "[6]; chronic treatment with morphine 15 μg/day for 5 days", "value": "~8", "unit": "fold"},
      {"measurement": "ED50 values for morphine in the control group", "setting": "[6]; group that had received atipemazole alone (0.8 ng/day) for 5 days, day 6, tail flick and paw pressure tests", "value": "approximately 5 μg"},
      {"measurement": "time course of analgesic response on day 5", "setting": "[6]; morphine 15 μg alone at conclusion of chronic treatment", "value": "drastically reduced"},
      {"measurement": "analgesic response to morphine on day 1", "setting": "[6]; morphine 15 μg intrathecal, 30 minutes after administration", "value": "maximal level"},
      {"measurement": "effect of morphine at 60 minutes post injection, both tests", "setting": "[6]; morphine 15 μg/day alone", "value": "very much reduced"},
      {"measurement": "cumulative morphine dose-response curve on day 6 after chronic morphine treatment", "setting": "[6]; morphine 15 μg/day for 5 days", "value": "rightward shift"},
      {"measurement": "magnitude of morphine effect with daily drug administration", "setting": "[6]; morphine 15 μg/day intrathecal for 5 days, 30 minutes after administration", "value": "progressively declined towards baseline value by day 5"},
      {"measurement": "morphine ED50, paw pressure test", "setting": "[7]; [16]", "value": "~48", "unit": "µg"},
      {"measurement": "morphine ED50, tail flick test", "setting": "[7]; [16]", "value": "~47", "unit": "µg"},
      {"measurement": "morphine ED50, paw pressure test", "setting": "[7]; [17]", "value": "~8", "unit": "µg"},
      {"measurement": "morphine ED50, tail flick test", "setting": "[7]; [17]", "value": "~6", "unit": "µg"},
      {"measurement": "acute morphine dose-response curve relative to morphine and atipemazole group", "setting": "[7]; morphine 15 μg alone for 10 days, day 11", "value": "displaced to the right"}
    ]}
  ]
}
